# Key:
# barnyardgrass [1] = experiment: Test B pre-/postemergence herbicide test; assay type: in vivo, Echinochloa crus-galli; conditions: for Barnyardgrass plant response rating: postemergence
# Method in brief: (§1)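 Pre: seeds sown, then sprayed. Post: 1–4-leaf plants (2–18 cm) sprayed at the same time. Paddy: flooded, treated at 2-leaf stage. Formulation: non-phytotoxic solvent with surfactant. Greenhouse 13–15 days; visual 0–100 score relative to controls.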
# Surinam grass = experiment: Test B pre-/postemergence herbicide test; assay type: in vivo, Urochloa decumbens; conditions: for Surinam Grass plant response rating: scale 0 (no effect) to 100 (complete control)
# Method in brief: (§2)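 Formulation: non-phytotoxic solvent mix with surfactant. Timing: preemergence on seed and postemergence on 2–18 cm plants, applied concurrently. Readout after 13–15 d greenhouse: visual 0–100 control rating against controls.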
# cocklebur = experiment: Test B pre-/postemergence herbicide test; assay type: in vivo, Xanthium strumarium; conditions: for Cocklebur plant response rating: postemergence
# Method in brief: as §1
# corn = experiment: Test B pre-/postemergence herbicide test; assay type: in vivo, Zea mays; conditions: for Corn plant response rating: postemergence
# Method in brief: as §2
# large crabgrass = experiment: Test B pre-/postemergence herbicide test; assay type: in vivo, Digitaria sanguinalis; conditions: for Crabgrass, Large plant response rating: postemergence
# Method in brief: as §2
# giant foxtail = experiment: Test B pre-/postemergence herbicide test; assay type: in vivo, Setaria faberi; conditions: for Foxtail, Giant plant response rating: postemergence
# Method in brief: as §2
# lambsquarters = experiment: Test B pre-/postemergence herbicide test; assay type: in vivo, Chenopodium album; conditions: scale 0 (no effect) to 100 (complete control)
# Method in brief: as §2
# morningglory = experiment: Test B pre-/postemergence herbicide test; assay type: in vivo, Ipomoea coccinea; conditions: for Morningglory plant response rating: scale 0 (no effect) to 100 (complete control)
# Method in brief: as §1
# pigweed = experiment: Test B pre-/postemergence herbicide test; assay type: in vivo, Amaranthus retroflexus; conditions: for Pigweed plant response rating: scale 0 (no effect) to 100 (complete control)
# Method in brief: as §2
# velvetleaf = experiment: Test B pre-/postemergence herbicide test; assay type: in vivo, Abutilon theophrasti; conditions: for Velvetleaf plant response rating: scale 0 (no effect) to 100 (complete control)
# Method in brief: as §2
# blackgrass = experiment: Test B postemergence herbicide test; assay type: in vivo, Alopecurus myosuroides; conditions: postemergence
# Method in brief: (§3)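 Read-out: visual comparison with controls, scored 0 to 100, where 100 means complete control and 0 no effect. Formulated chemicals were applied postemergence to plants 2–18 cm tall (1- to 4-leaf), or to flooded-paddy plants at the 2-leaf stage, then held 13 to 15 days under glass.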
# wheat = experiment: Test B postemergence herbicide test; assay type: in vivo, Triticum aestivum; design: key to Wheat plant response rating: 0 = no effect, 100 = complete control
# Method in brief: as §3
# wild oat = experiment: Test B postemergence herbicide test; assay type: in vivo, Avena fatua; conditions: scale 0 (no effect) to 100 (complete control)
# Method in brief: as §3
# rice [2] = experiment: Test B flooded paddy test; assay type: in vivo, Oryza sativa; conditions: 1000 g ai/ha, scale 0 to 100 (0 no effect, 100 complete control)
# Method in brief: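 Scale 0–100: zero equals no visible effect, 100 complete control, judged by eye relative to controls. Timing: 13 to 15 days in greenhouse post-treatment. Growth stage at spraying: two leaves (paddy) or one to four leaves, 2–18 cm (postemergence).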
# [3] = system: small flower umbrella sedge; experiment: Test B flooded paddy test; assay type: in vivo, Cyperus difformis; conditions: 1000 g ai/ha, scale 0 to 100 (0 no effect, 100 complete control)
# Method in brief: as §3
# ducksalad [4] = experiment: Test B flooded paddy test; assay type: in vivo, Heteranthera limosa; conditions: 1000 g ai/ha, scale 0 to 100 (0 no effect, 100 complete control)
# Method in brief: as §3
# barnyardgrass [5] = experiment: Test B flooded paddy test; assay type: in vivo, Echinochloa crus-galli; conditions: 1000 g ai/ha, scale 0 to 100 (0 no effect, 100 complete control)
# Method in brief: as §3
# rice [6] = experiment: Test C flooded paddy test; assay type: in vivo, Oryza sativa
# Method in brief: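 Injury scored visually against controls on a 0 (no effect) to 100 (complete control) scale, 12 to 14 days after treatment in greenhouse. Flooded paddy plants treated at 2-leaf stage; postemergence plants at 1- to 4-leaf stage, 2 to 18 cm tall.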
# [7] = system: smallflower umbrella sedge; experiment: Test C flooded paddy test; assay type: in vivo, Cyperus difformis
# ducksalad [8] = experiment: Test C flooded paddy test; assay type: in vivo, Heteranthera limosa
# barnyardgrass [9] = experiment: Test C flooded paddy test; assay type: in vivo, Echinochloa crus-galli
# Method in brief: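 Postemergence sprays were applied to plants 2 to 18 cm tall (1- to 4-leaf stage); in the flooded paddy test, barnyardgrass was grown to the 2-leaf stage. After 12 to 14 days in a greenhouse, injury was visually rated against untreated controls on a 0–100 scale (100 = complete control).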
# [10] = 125 g ai/ha, 0 is no effect, 100 is complete control, preemergence
# [11] = 125 g ai/ha, visual rating, scale 0 (no effect) to 100 (complete control)
# [12] = 500 g ai/ha, scale 0 to 100, 0 is no effect, 100 is complete control
# [13] = 125 g ai/ha, visual rating, postemergence
# [14] = 125 g ai/ha, scale 0 to 100 (0 no effect, 100 complete control)
# [15] = 250 g ai/ha, scale of 0 to 100, 0 is no effect, 100 is complete control
# [16] = 500 g ai/ha, visual rating after 12 to 14 days, scale 0 to 100 (0 no effect, 100 complete control)
compound,measurement,setting,value
CCc1nn(C(C)(C)CC)nc1C(=O)Nc1cc(C(=O)N(C)C)ccc1F [Compound 368],"Plant response rating (0 to 100 scale), Barnyardgrass",barnyardgrass [1]; [10],40
same,Barnyardgrass plant response rating,barnyardgrass [1]; [11],0
same,Barnyardgrass plant response rating,barnyardgrass [1]; [12],10
same,"Plant response rating (0 to 100 scale), Surinam Grass",Surinam grass; [10],10
same,Surinam Grass plant response rating,Surinam grass; [13],0
same,Surinam Grass plant response rating,"Surinam grass; Postemergence, 500 g ai/ha",0
same,"Plant response rating (0 to 100 scale), Cocklebur",cocklebur; [10],0
same,Cocklebur plant response rating,cocklebur; [11],20
same,Cocklebur plant response rating,cocklebur; [12],30
same,"Plant response rating (0 to 100 scale), Corn",corn; [10],0
same,Corn plant response rating,corn; [11],0
same,Corn plant response rating,corn; [12],10
same,"Plant response rating (0 to 100 scale), Crabgrass, Large",large crabgrass; [10],10
same,"Crabgrass, Large plant response rating",large crabgrass; [11],10
same,"Crabgrass, Large plant response rating",large crabgrass; [12],10
same,"Plant response rating (0 to 100 scale), Foxtail, Giant",giant foxtail; [10],20
same,"Foxtail, Giant plant response rating",giant foxtail; [11],0
same,"Foxtail, Giant plant response rating",giant foxtail; [12],10
same,Lambsquarters plant response rating,lambsquarters; [13],50
same,Lambsquarters plant response rating,"lambsquarters; Postemergence, 500 g ai/ha",60
same,"Plant response rating (0 to 100 scale), Morningglory",morningglory; [10],0
same,Morningglory plant response rating,morningglory; [13],0
same,Morningglory plant response rating,"morningglory; Postemergence, 500 g ai/ha",30
same,"Plant response rating (0 to 100 scale), Pigweed",pigweed; [10],30
same,Pigweed plant response rating,pigweed; [13],10
same,Pigweed plant response rating,"pigweed; Postemergence, 500 g ai/ha",50
same,"Plant response rating (0 to 100 scale), Velvetleaf",velvetleaf; [10],0
same,Velvetleaf plant response rating,velvetleaf; [13],10
same,Velvetleaf plant response rating,"velvetleaf; Postemergence, 500 g ai/ha",20
same,Blackgrass plant response rating,blackgrass; [11],0
same,Blackgrass plant response rating,blackgrass; [12],10
same,Wheat plant response rating,"wheat; 125 g ai/ha, visual rating, scale 0 (no effect) to 100 (complete control), postemergence",0
same,Wheat plant response rating,"wheat; 500 g ai/ha, scale 0 to 100, 0 no effect, 100 complete control, preemergence",10
same,Wheat plant response rating,"wheat; Postemergence, 500 g ai/ha, scale 0 (no effect) to 100 (complete control)",0
same,"Oat, Wild plant response rating",wild oat; [13],0
same,"Oat, Wild plant response rating","wild oat; Postemergence, 500 g ai/ha",0
same,Rice plant response rating,rice [2],50
same,"Sedge, Umbrella plant response rating",[3],80
same,Ducksalad plant response rating,ducksalad [4],90
same,Barnyardgrass plant response rating,barnyardgrass [5],60
same,Rice plant response rating,"rice [6]; 62 g ai/ha, scale 0 to 100",20
same,Rice plant response rating,rice [6]; [14],45
same,Rice plant response rating,rice [6]; [15],60
same,"Plant response rating, Rice",rice [6]; [16],70
same,"Sedge, Umbrella plant response rating","[7]; 62 g ai/ha, scale 0 to 100",20
same,"Sedge, Umbrella plant response rating",[7]; [14],75
same,"Sedge, Umbrella plant response rating",[7]; [15],75
same,Ducksalad plant response rating,"ducksalad [8]; 62 g ai/ha, scale 0 to 100",0
same,Ducksalad plant response rating,ducksalad [8]; [14],80
same,Ducksalad plant response rating,ducksalad [8]; [15],90
same,Barnyardgrass plant response rating,"barnyardgrass [9]; 62 g ai/ha, scale 0 to 100 (0 no effect, 100 complete control)",0
same,Barnyardgrass plant response rating,barnyardgrass [9]; [14],0
same,Barnyardgrass plant response rating,barnyardgrass [9]; [15],0
same,"Plant response rating, Barnyardgrass",barnyardgrass [9]; [16],30

# Source: patent publication US20060069132A1, “Azolecarboxamide herbicides” (priority 2004, published 2006)
